The subject of series [1] is CD86 on LCs/DDCs stimulated with LPS and TNFα. In words: Response to a danger signal: LCs/DDCs pretreated with active principles, then stimulated with LPS + TNFα without them, CD86 by flow cytometry. The series is classed as cell-based, human. Conditions: for RESPONSE CAPACITY: capacity for response to a danger signal, proportional to residual CD86 after pretreatment + stimulation (stimulation alone 143%); for RESIDUAL EXPRESSION OF CD86 AFTER PRETREATMENT + STIMULATION: pretreated, then recultured 48 hours without active principle with LPS 50 μg/mL + TNFα 10 μg/mL, untreated unstimulated control = 100%. From the text: As in Example 8, we checked that the LCs/DDCs are capable of responding to a danger signal, for example a bacterial infection, when they have been treated beforehand with the active principles and when they are no longer being treated. To do this, we checked that the LCs/DDCs treated with the said active principles, and then stimulated with LPS and TNFα (in the absence of the active principles), are capable of overexpressing the co-stimulation molecule CD86 after this stimulation.
(§1) The flow cytometry study proceeds in the following manner:
(§2) 1/ The immature LCs/DDCs are generated as described in Example 1 and step 3.
(§3) 2/ The cells are inoculated in P24-well plates, at a rate of 400 000 cells per cm^2, and in the culture medium described in Example 3. The treatment of the cells with the active principles is described in Example 3.
3/ The cells treated with the active principles are then recultured, without the active principles and in the culture medium described in Example 3, for a further 48 hours. A mixture of LPS (at 50 μg/mL advantageously) and of TNFα (at 10 μg/mL advantageously) is added to the said culture medium. The cells are then analysed by flow cytometry, as described in Example 6, to quantify the residual expression of the molecule CD86 after “pretreatment+stimulation”.
The results are expressed in the following manner: the control not treated with the active agent and not stimulated with LPS and TNFα is referenced at 100% expression of the molecule CD86, and the tests are expressed as the residual expression of the molecule CD86 after “stimulation” and after “pretreatment+stimulation”. We also calculated the level of capacity for response to a danger signal, which is proportional to the residual expression of CD86 after pretreatment+stimulation.

A further series deals with immature LCs/DDCs. In words: Cell viability (cytotoxicity) test, 7-AAD dye, flow cytometry. It is filed as cell-based. Conditions: 10^-7M, 24 hour treatment. The protocol:
The active principles have a cytotoxic effect when the cell viability is less than 75% after treatment with the said active agents.
The LCs/DDCs, as described in Example 1 and step 3, are inoculated into P96-well plates, at a rate of 200 000 cells/well, and in the culture medium described in Example 3. The treatment of the cells with the active principles is described in Example 3.
After treatment with the said active principles, the cells are incubated with 5 μl of dye 7-AAD (7-aminoactinomycin D) per well. After incubation for 5 minutes, the cells are analysed by flow cytometry.
The cell viability is expressed as a percentage of viable cells or negative 7-AAD, the dye not penetrating the membranes that are impermeable. This analysis technique also makes it possible to visualize the cells positively marked with 7-AAD, i.e. the cells that have undergone a cytotoxic effect via the active agent.
The negative controls are either the culture medium alone, or the culture medium containing the solvent used during the process for extracting the extracts tested at the concentration equivalent to that of the active agents tested. The reference positive control used in order to induce a mortality of the LCs/DDCs is camptothecin at a concentration of 4 μM final.

Series [2] relates to CD86 on LCs/DDCs stimulated with LPS and TNFα. In words: Response to a danger signal: LCs/DDCs simultaneously treated with active principles and stimulated with LPS + TNFα, CD86 by flow cytometry. The series is classed as cell-based, human. Conditions: for RESIDUAL EXPRESSION OF CD86 AFTER TREATMENT: active principle alone, no stimulation; for RESIDUAL EXPRESSION OF CD86 AFTER TREATMENT / RESIDUAL EXPRESSION OF CD86 AFTER TREATMENT + STIMULATION: untreated unstimulated control = 100%; for RESPONSE CAPACITY: capacity for response to a danger signal, proportional to residual CD86 after treatment + stimulation (stimulation alone 143%); for RESIDUAL EXPRESSION OF CD86 AFTER TREATMENT + STIMULATION: simultaneous active principle and LPS 50 μg/mL + TNFα 10 μg/mL. The protocol: Evaluation of the immunorepressive potential of the active principles also requires a study of the capacity of the LCs/DDCs to respond to a danger signal, for example a bacterial infection, when they are treated with the said active principles. Specifically, we checked that the LCs/DDCs that are simultaneously treated with the active principles and activated by a danger signal are still competent in their function of recognition of danger signals. To do this, we checked that the LDs/DDCs simultaneously treated with the active principles and stimulated with LPS and TNFα are capable of overexpressing the co-stimulation molecule CD86 after this stimulation.
as §1, §2
2/ The cells are inoculated in P24-well plates, at a rate of 400 000 cells per cm^2, and in the culture medium described in Example 3. A mixture of LPS (at 50 μg/mL advantageously) and of TNFα (at 10 μg/mL advantageously) is added to the said culture medium. Simultaneously, the cells are treated with the active principles as described in Example 3.
3/ The cells that have been simultaneously treated with the active principles and stimulated with LPS and TNFα are analysed by flow cytometry, as described in Example 6, to quantify the residual expression of the molecule CD86 after “treatment+stimulation”.
The results are expressed in the following manner: the control not treated with the active agent and not stimulated with LPS+TNFα is referenced at 100% expression of the molecule CD86, and the tests are expressed as the residual expression of the molecule CD86 after “treatment”, after “treatment+stimulation” and “stimulation”. We also calculated the level of capacity for response to a danger signal, which is proportional to the residual expression of CD86 after treatment+stimulation.

Series [3] has as its system CD86 on immature LCs/DDCs. In words: Protein expression of CD86 on treated immature LCs/DDCs, flow cytometry. It is filed as cell-based, human. Conditions: for RESIDUAL EXPRESSION OF CD86: protein, untreated control = 100%; for LEVEL OF IMMUNOREPRESSION: inversely proportional to residual CD86 protein expression, closer to 1 = stronger. On the procedure: The study of the immunorepressive properties of the cosmetic active principles by flow cytometry proceeds in the following manner:
as §2
2/ The cells are inoculated in P24-well plates, at a rate of 400 000 cells per cm^2, and in the culture medium described in Example 3.
4/ The cells are then incubated for 30 minutes with an anti-CD86 monoclonal antibody coupled to a fluorochrome, such as phycoerythrin (advantageously 10 μl of anti-CD86 antibody/well). The negative marking control corresponds to the IgG1 control isotype. After this marking step, the cells are rinsed with the said marking buffer, and then analysed by flow cytometry.
The level of immunorepression, which is inversely proportional to the residual expression of CD86, was also calculated.

Series [4] concerns messenger RNAs coding for CD86 in immature LCs/DDCs. In words: Expression of messenger RNAs coding for CD86 in treated immature LCs/DDCs, quantitative RT-PCR. It is filed as cell-based, human. Conditions: 10^-7M, 24 hour treatment.
From the text: Quantitative RT-PCR makes it possible to quantify the expression of the messenger RNAs coding for the protein CD86 in the LCs/DDCs treated or not treated with the said active agents.
The study of the immunorepressive properties of the cosmetic active principles by quantitative RT-PCR proceeds in the following manner:
as §2, §3
3/ After treatment with the active principles, the cells are recovered and stored, for example by dry-freezing at −80° C. after rinsing with pH 7.4 phosphate buffer.
4/ The total RNA of the cells is extracted, for example using a 96-well extraction kit on silica columns, and assayed on e96-well spectrophotometer at 260 nm (purity indicator: assay of the proteins at 280 nm). The RNAs are diluted, for example, to 5 ng/μl.
5/ The […] RT-PCR in step 1 is performed, for example, on 50 ng of initial RNA on a 96-well plate, on the genes for actin and for the molecule CD86. The specific primers for each gene are specified in Table 7 below and are used, for example, at 0.5 μM.
The amplification parameters were advantageously the following: the real-time RT-PCR technique is performed with the Quanti Tect SYBR Green RT-PCR kit (Qiagen, France) on the wells containing the messenger RNA, in an Opticon thermocycler, which performs the amplification cycles. The reverse transcription (RT) is performed for 30 minutes at 50° C., followed by 15 minutes at 95° C. to inhibit the reverse transcriptase, to activate the polymerase and to denature the complementary DNA (cDNA) obtained. 50 cycles of chain polymerization (PCR) are performed (15 seconds at 95° C., 30 seconds at 60° C., 30 seconds at 72° C.). At the end of each cycle, the fluorescence, which is proportional to the number of amplified fragments, is read. The level of expression is defined by the ratio of expression of each gene relative to actin.
The results are expressed in the following manner: the untreated control is referenced at 100% expression of the messenger RNAs coding for the molecule CD86, and the tests are expressed as the level of expression of the messenger RNAs coding for CD86 as a percentage of variation relative to those obtained for the negative control.

On to `O=C1C=C2C=C[C@@H]3C[C@@]2(O1)[C@H]1CCCCN31` [Securinine], for which the “RESPONSE CAPACITY” value in series [1] is reported as 0.88; in series [2], 0.98. The “RESIDUAL EXPRESSION OF CD86 AFTER PRETREATMENT + STIMULATION” value in series [1] amounted to 126%. For the same compound, the “CYTOTOXIC EFFECT” value with immature LCs/DDCs is “NO (The active principles have a cytotoxic effect when the cell viability is less than 75% after treatment with the said active agents)”. The “CELL VIABILITY” value in the series with immature LCs/DDCs (% viable (7-AAD negative) cells) is given as 94%. Besides, the “RESIDUAL EXPRESSION OF CD86 AFTER TREATMENT” value in series [2] is 83%. Also, in series [2], the “RESIDUAL EXPRESSION OF CD86 AFTER TREATMENT + STIMULATION” value turned out to be 140%. The “RESIDUAL EXPRESSION OF CD86” value in series [3] (5 × 1^0^-^7M, dose/effect study) is on record as 100%; in series [3] (5 × 10^-8M, dose/effect study), 90%; in series [3] (10^-6M, dose/effect study), 100%; in series [3] (10^-7M, 24 hour treatment) it was 83%; in series [4] (messenger RNA relative to actin, untreated control = 100%), 74%. Also, the “LEVEL OF IMMUNOREPRESSION” value in series [3] (10^-7M, 24 hour treatment) came out at 0.10; in series [4] (from CD86 messenger RNA, closer to 1 = stronger), 0.26.
In the case of `C[C@@H]1C[C@H]2[C@@H]3CCC4=CC(=O)C=C[C@]4(C)[C@@]3(F)[C@@H](O)C[C@]2(C)[C@@]1(O)C(=O)CO` [Dexamethasone, reference compound], in series [1], the “RESPONSE CAPACITY” value was found to be 0.91 and the “RESIDUAL EXPRESSION OF CD86 AFTER PRETREATMENT + STIMULATION” value is 130%. Also, in series [2], the “RESIDUAL EXPRESSION OF CD86 AFTER TREATMENT” value is given as 50%, the “RESPONSE CAPACITY” value was determined as 0.52 and the “RESIDUAL EXPRESSION OF CD86 AFTER TREATMENT + STIMULATION” value was 75%. Besides, in series [3] (10^-8M, 24 hour treatment), the “RESIDUAL EXPRESSION OF CD86” value is recorded as 50% and the “LEVEL OF IMMUNOREPRESSION” value was determined as 0.5.

(Values after patent US20110008394A1, “ACTIVE SUBSTANCES THAT INCREASE THE ACTIVATION THRESHOLD OF IMMUNE CELLS” (BASF Beauty Care Solutions France S.A.S., priority 2008, published 2011).)
